Numbers after ± are expanded uncertainties.
Assays:
[1] = Liquid; for viscosity: 101 kPa; for mass density: 101.33 kPa, Pycnometric method
[2] = xn = mol fraction of the nth substance listed; conditions: 101 kPa, Liquid

CCOCCO [2-ethoxyethan-1-ol]
viscosity ([1]; 303.15 K): 1.654 ± 0.025 mPa·s | mass density ([1]; 303.15 K): 921.19 ± 0.76 kg/m3 | viscosity ([1]; 308.15 K): 1.482 ± 0.023 mPa·s | mass density ([1]; 308.15 K): 916.43 ± 0.77 kg/m3 | viscosity ([1]; 313.15 K): 1.306 ± 0.02 mPa·s | mass density ([1]; 313.15 K): 911.58 ± 0.72 kg/m3 | viscosity ([1]; 318.15 K): 1.231 ± 0.019 mPa·s | mass density ([1]; 318.15 K): 907.76 ± 0.7 kg/m3 | viscosity ([1]; 323.15 K): 1.116 ± 0.018 mPa·s | mass density ([1]; 323.15 K): 903.45 ± 0.73 kg/m3

CCOCCO [2-ethoxyethan-1-ol] + NC=O
viscosity ([2]; 303.15 K, x2 = 0): 1.654 ± 0.025 mPa·s | viscosity ([2]; 303.15 K, x2 = 0.0975): 1.996 ± 0.03 mPa·s | viscosity ([2]; 303.15 K, x2 = 0.2009): 2.306 ± 0.035 mPa·s | viscosity ([2]; 303.15 K, x2 = 0.2984): 2.58 ± 0.038 mPa·s | viscosity ([2]; 303.15 K, x2 = 0.4047): 2.873 ± 0.043 mPa·s | viscosity ([2]; 303.15 K, x2 = 0.5054): 3.162 ± 0.047 mPa·s | viscosity ([2]; 303.15 K, x2 = 0.6055): 3.409 ± 0.051 mPa·s | viscosity ([2]; 303.15 K, x2 = 0.7092): 3.509 ± 0.052 mPa·s | viscosity ([2]; 303.15 K, x2 = 0.8063): 3.495 ± 0.052 mPa·s | viscosity ([2]; 303.15 K, x2 = 0.9074): 3.306 ± 0.05 mPa·s | viscosity ([2]; 308.15 K, x2 = 0): 1.482 ± 0.023 mPa·s | viscosity ([2]; 308.15 K, x2 = 0.0975): 1.79 ± 0.027 mPa·s | viscosity ([2]; 308.15 K, x2 = 0.2009): 2.017 ± 0.03 mPa·s | viscosity ([2]; 308.15 K, x2 = 0.2984): 2.24 ± 0.034 mPa·s | viscosity ([2]; 308.15 K, x2 = 0.4047): 2.49 ± 0.037 mPa·s | viscosity ([2]; 308.15 K, x2 = 0.5054): 2.735 ± 0.041 mPa·s | viscosity ([2]; 308.15 K, x2 = 0.6055): 2.968 ± 0.044 mPa·s | viscosity ([2]; 308.15 K, x2 = 0.7092): 3.043 ± 0.046 mPa·s | viscosity ([2]; 308.15 K, x2 = 0.8063): 3.007 ± 0.045 mPa·s | viscosity ([2]; 308.15 K, x2 = 0.9074): 2.867 ± 0.044 mPa·s | viscosity ([2]; 313.15 K, x2 = 0): 1.306 ± 0.02 mPa·s | viscosity ([2]; 313.15 K, x2 = 0.0975): 1.564 ± 0.024 mPa·s | viscosity ([2]; 313.15 K, x2 = 0.2009): 1.786 ± 0.027 mPa·s | viscosity ([2]; 313.15 K, x2 = 0.2984): 1.986 ± 0.03 mPa·s | viscosity ([2]; 313.15 K, x2 = 0.4047): 2.221 ± 0.034 mPa·s | viscosity ([2]; 313.15 K, x2 = 0.5054): 2.466 ± 0.037 mPa·s | viscosity ([2]; 313.15 K, x2 = 0.6055): 2.659 ± 0.04 mPa·s | viscosity ([2]; 313.15 K, x2 = 0.7092): 2.718 ± 0.041 mPa·s | viscosity ([2]; 313.15 K, x2 = 0.8063): 2.692 ± 0.041 mPa·s | viscosity ([2]; 313.15 K, x2 = 0.9074): 2.583 ± 0.04 mPa·s | viscosity ([2]; 318.15 K, x2 = 0): 1.231 ± 0.019 mPa·s | viscosity ([2]; 318.15 K, x2 = 0.0975): 1.437 ± 0.022 mPa·s | viscosity ([2]; 318.15 K, x2 = 0.2009): 1.599 ± 0.025 mPa·s | viscosity ([2]; 318.15 K, x2 = 0.2984): 1.751 ± 0.027 mPa·s | viscosity ([2]; 318.15 K, x2 = 0.4047): 1.957 ± 0.03 mPa·s | viscosity ([2]; 318.15 K, x2 = 0.5054): 2.154 ± 0.033 mPa·s | viscosity ([2]; 318.15 K, x2 = 0.6055): 2.298 ± 0.035 mPa·s | viscosity ([2]; 318.15 K, x2 = 0.7092): 2.363 ± 0.036 mPa·s | viscosity ([2]; 318.15 K, x2 = 0.8063): 2.353 ± 0.036 mPa·s | viscosity ([2]; 318.15 K, x2 = 0.9074): 2.202 ± 0.034 mPa·s | viscosity ([2]; 323.15 K, x2 = 0): 1.116 ± 0.018 mPa·s | viscosity ([2]; 323.15 K, x2 = 0.0975): 1.281 ± 0.02 mPa·s | viscosity ([2]; 323.15 K, x2 = 0.2009): 1.415 ± 0.022 mPa·s | viscosity ([2]; 323.15 K, x2 = 0.2984): 1.533 ± 0.024 mPa·s | viscosity ([2]; 323.15 K, x2 = 0.4047): 1.709 ± 0.026 mPa·s | viscosity ([2]; 323.15 K, x2 = 0.5054): 1.891 ± 0.029 mPa·s | viscosity ([2]; 323.15 K, x2 = 0.6055): 2.041 ± 0.031 mPa·s | viscosity ([2]; 323.15 K, x2 = 0.7092): 2.1 ± 0.032 mPa·s | viscosity ([2]; 323.15 K, x2 = 0.8063): 2.094 ± 0.032 mPa·s | viscosity ([2]; 323.15 K, x2 = 0.9074): 1.954 ± 0.03 mPa·s

COCCO [2-methoxyethan-1-ol]
viscosity ([1]; 303.15 K): 1.421 ± 0.022 mPa·s | mass density ([1]; 303.15 K): 955.72 ± 0.75 kg/m3 | viscosity ([1]; 308.15 K): 1.249 ± 0.02 mPa·s | mass density ([1]; 308.15 K): 951.11 ± 0.77 kg/m3 | viscosity ([1]; 313.15 K): 1.173 ± 0.019 mPa·s | mass density ([1]; 313.15 K): 946.27 ± 0.78 kg/m3 | viscosity ([1]; 318.15 K): 1.079 ± 0.017 mPa·s | mass density ([1]; 318.15 K): 941.64 ± 0.78 kg/m3 | viscosity ([1]; 323.15 K): 0.9347 ± 0.015 mPa·s | mass density ([1]; 323.15 K): 936.88 ± 0.79 kg/m3

COCCO [2-methoxyethan-1-ol] + NC=O
viscosity ([2]; 303.15 K, x2 = 0): 1.421 ± 0.022 mPa·s | viscosity ([2]; 308.15 K, x2 = 0): 1.249 ± 0.02 mPa·s | viscosity ([2]; 313.15 K, x2 = 0): 1.173 ± 0.019 mPa·s | viscosity ([2]; 318.15 K, x2 = 0): 1.079 ± 0.017 mPa·s | viscosity ([2]; 323.15 K, x2 = 0): 0.9347 ± 0.015 mPa·s

NC=O [formamide]
viscosity ([1]; 303.15 K): 2.877 ± 0.044 mPa·s | mass density ([1]; 303.15 K): 1124.57 ± 0.94 kg/m3 | viscosity ([1]; 308.15 K): 2.544 ± 0.039 mPa·s | mass density ([1]; 308.15 K): 1120.19 ± 0.97 kg/m3 | viscosity ([1]; 313.15 K): 2.356 ± 0.036 mPa·s | mass density ([1]; 313.15 K): 1115.22 ± 0.98 kg/m3 | viscosity ([1]; 318.15 K): 2.061 ± 0.032 mPa·s | mass density ([1]; 318.15 K): 1110.95 ± 1 kg/m3 | viscosity ([1]; 323.15 K): 1.835 ± 0.029 mPa·s | mass density ([1]; 323.15 K): 1105.47 ± 1.1 kg/m3

NC=O [formamide] + CCOCCO
viscosity ([2]; 303.15 K, x1 = 1): 2.877 ± 0.044 mPa·s | viscosity ([2]; 308.15 K, x1 = 1): 2.544 ± 0.039 mPa·s | viscosity ([2]; 313.15 K, x1 = 1): 2.356 ± 0.036 mPa·s | viscosity ([2]; 318.15 K, x1 = 1): 2.061 ± 0.032 mPa·s | viscosity ([2]; 323.15 K, x1 = 1): 1.835 ± 0.029 mPa·s

NC=O [formamide] + COCCO
viscosity ([2]; 303.15 K, x1 = 0.1785): 1.795 ± 0.027 mPa·s | viscosity ([2]; 303.15 K, x1 = 0.2723): 1.993 ± 0.03 mPa·s | viscosity ([2]; 303.15 K, x1 = 0.3849): 2.237 ± 0.034 mPa·s | viscosity ([2]; 303.15 K, x1 = 0.4862): 2.47 ± 0.037 mPa·s | viscosity ([2]; 303.15 K, x1 = 0.5726): 2.665 ± 0.04 mPa·s | viscosity ([2]; 303.15 K, x1 = 0.6651): 2.849 ± 0.043 mPa·s | viscosity ([2]; 303.15 K, x1 = 0.7492): 2.927 ± 0.044 mPa·s | viscosity ([2]; 303.15 K, x1 = 0.8363): 2.968 ± 0.045 mPa·s | viscosity ([2]; 303.15 K, x1 = 0.9138): 2.965 ± 0.045 mPa·s | viscosity ([2]; 303.15 K, x1 = 1): 2.877 ± 0.044 mPa·s | viscosity ([2]; 308.15 K, x1 = 0.1785): 1.573 ± 0.024 mPa·s | viscosity ([2]; 308.15 K, x1 = 0.2723): 1.749 ± 0.027 mPa·s | viscosity ([2]; 308.15 K, x1 = 0.3849): 1.966 ± 0.03 mPa·s | viscosity ([2]; 308.15 K, x1 = 0.4862): 2.158 ± 0.033 mPa·s | viscosity ([2]; 308.15 K, x1 = 0.5726): 2.322 ± 0.035 mPa·s | viscosity ([2]; 308.15 K, x1 = 0.6651): 2.504 ± 0.038 mPa·s | viscosity ([2]; 308.15 K, x1 = 0.7492): 2.593 ± 0.039 mPa·s | viscosity ([2]; 308.15 K, x1 = 0.8363): 2.614 ± 0.04 mPa·s | viscosity ([2]; 308.15 K, x1 = 0.9138): 2.609 ± 0.04 mPa·s | viscosity ([2]; 308.15 K, x1 = 1): 2.544 ± 0.039 mPa·s | viscosity ([2]; 313.15 K, x1 = 0.1785): 1.453 ± 0.023 mPa·s | viscosity ([2]; 313.15 K, x1 = 0.2723): 1.623 ± 0.025 mPa·s | viscosity ([2]; 313.15 K, x1 = 0.3849): 1.813 ± 0.028 mPa·s | viscosity ([2]; 313.15 K, x1 = 0.4862): 1.988 ± 0.03 mPa·s | viscosity ([2]; 313.15 K, x1 = 0.5726): 2.131 ± 0.033 mPa·s | viscosity ([2]; 313.15 K, x1 = 0.6651): 2.264 ± 0.035 mPa·s | viscosity ([2]; 313.15 K, x1 = 0.7492): 2.323 ± 0.036 mPa·s | viscosity ([2]; 313.15 K, x1 = 0.8363): 2.361 ± 0.036 mPa·s | viscosity ([2]; 313.15 K, x1 = 0.9138): 2.36 ± 0.036 mPa·s | viscosity ([2]; 313.15 K, x1 = 1): 2.356 ± 0.036 mPa·s | viscosity ([2]; 318.15 K, x1 = 0.1785): 1.313 ± 0.021 mPa·s | viscosity ([2]; 318.15 K, x1 = 0.2723): 1.46 ± 0.023 mPa·s | viscosity ([2]; 318.15 K, x1 = 0.3849): 1.626 ± 0.025 mPa·s | viscosity ([2]; 318.15 K, x1 = 0.4862): 1.769 ± 0.027 mPa·s | viscosity ([2]; 318.15 K, x1 = 0.5726): 1.885 ± 0.029 mPa·s | viscosity ([2]; 318.15 K, x1 = 0.6651): 1.988 ± 0.031 mPa·s | viscosity ([2]; 318.15 K, x1 = 0.7492): 2.046 ± 0.032 mPa·s | viscosity ([2]; 318.15 K, x1 = 0.8363): 2.07 ± 0.032 mPa·s | viscosity ([2]; 318.15 K, x1 = 0.9138): 2.057 ± 0.032 mPa·s | viscosity ([2]; 318.15 K, x1 = 1): 2.061 ± 0.032 mPa·s | viscosity ([2]; 323.15 K, x1 = 0.1785): 1.129 ± 0.018 mPa·s | viscosity ([2]; 323.15 K, x1 = 0.2723): 1.27 ± 0.02 mPa·s | viscosity ([2]; 323.15 K, x1 = 0.3849): 1.421 ± 0.022 mPa·s | viscosity ([2]; 323.15 K, x1 = 0.4862): 1.566 ± 0.025 mPa·s | viscosity ([2]; 323.15 K, x1 = 0.5726): 1.661 ± 0.026 mPa·s | viscosity ([2]; 323.15 K, x1 = 0.6651): 1.75 ± 0.027 mPa·s | viscosity ([2]; 323.15 K, x1 = 0.7492): 1.806 ± 0.028 mPa·s | viscosity ([2]; 323.15 K, x1 = 0.8363): 1.842 ± 0.029 mPa·s | viscosity ([2]; 323.15 K, x1 = 0.9138): 1.83 ± 0.029 mPa·s | viscosity ([2]; 323.15 K, x1 = 1): 1.835 ± 0.029 mPa·s

Source: the NIST ThermoML archive (doi:10.1016/j.tca.2012.03.001)
